Source: patent US20250223303A1, “TRICYCLIC BORONIC ACID DERIVATIVE, AND PREPARATION METHOD THEREFOR AND APPLICATION THEREOF” (priority 2021, published 2025)

What was measured:
[1] = system: Escherichia coli ARLG 2829; assay: MIC test of compounds in combination with antibiotics, Escherichia coli ARLG 2829; settings: for MIC of biapenem in combination with compound, Escherichia coli ARLG-2829 NDM-5, OXA-1: Biapenem + compound (8 μg/mL); for MIC of meropenem in combination with compound, Escherichia coli ARLG-2829 NDM-5, OXA-1: Meropenem + compound (8 μg/mL)
Procedure: (§1) Strain preparation: the strains to be tested were streaked from glycerol tube at −80° C. onto Mueller Hinton II Agar plates. The plates were then placed in a 37° C. incubator and cultured for 18-24 hours.
(§2) Media preparation: CAMHB (Mueller Hinton II Broth): 22 g of powder was dissolved in 1 L of purified water and sterilized at 121° C. for 10 min for use. Saline: 8.5 g NaCl was dissolved in 1 L of pure water and sterilized at 121° C. for 30 min for use.
(§3) Preparation of compound and antibiotic stock solutions: the compound and antibiotic were dissolved in DMSO or water to 12.8 mg/mL.
(§4) 2-Fold gradient dilution of antibiotics: 300 μL of CAMHVIB medium was added to columns 2-12 of a 96-deep well plate. In column 1, 24 μL of antibiotic stock solution and 576 µL of CAMHB medium were added and mixed well, with a concentration of 512 μg/mL. 300 µL of antibiotic solution was transferred from the column 1 to the second column and mixed well. The process was repeated until column 11, and the column 12 was a blank control.
(§5) Dilution of combined compounds: the compound was diluted 400-fold to 32 μg/ml with CAMHB medium.
(§6) Working solution aliquoting: 25 μL of antibiotics was aliquoted into the 96-U bottom plate with a pipette, and 25 μL of combined compound was added to each well. If antibiotics were used alone, 25 μL of CAMHB medium was added.
(§7) Inoculum solution preparation: 5-6 single colonies were selected from the plate and suspended in normal saline. The bacterial suspension was adjusted to 0.2 (i.e., 0.5 McFarland turbidity, with a bacterial concentration was about 1 to 2×10^8 CFU/mL) with a turbidity meter. The bacterial suspension was diluted 100-fold with CAMHB medium for later use.
(§8) Inoculation: 50 μL of inoculum solution was transferred to the above 50 μL compound plate with a pipette.
(§9) Culture: The 96-U bottom plate was placed in an incubator at 37° C. for 18 to 20 h.
(§10) After the incubation, bacterial growth was visually observed, and the test plate was photographed and recorded.

[2] = system: Klebsiella pneumoniae ARLG 1196; assay: MIC test of compounds in combination with antibiotics, Klebsiella pneumoniae ARLG 1196; settings: for MIC of biapenem in combination with compound, Klebsiella pneumoniae ARLG-1196 CTM-1 group, SHV, NDM, TEM: Biapenem + compound (8 μg/mL); for MIC of meropenem in combination with compound, Klebsiella pneumoniae ARLG-1196 CTM-1 group, SHV, NDM, TEM: Meropenem + compound (8 μg/mL)
Procedure: as §1, §2, §3, §4, §5, §6, §7, §8, §9, §10

[3] = system: Klebsiella pneumoniae ATCC BAA-2470; assay: MIC test of compounds in combination with antibiotics, Klebsiella pneumoniae ATCC BAA-2470; settings: for MIC of biapenem in combination with compound, Klebsiella pneumoniae ATCC BAA-2470 NDM-1: Biapenem + compound (8 μg/mL); for MIC of meropenem in combination with compound, Klebsiella pneumoniae ATCC BAA-2470 NDM-1: Meropenem + compound (8 μg/mL)
Procedure: as §1, §2, §3, §4, §5, §6, §7, §8, §9, §10

[4] = system: Klebsiella pneumoniae ATCC BAA-1705; assay: MIC test of compounds in combination with antibiotics, Klebsiella pneumoniae ATCC BAA-1705; settings: for MIC of biapenem in combination with compound, Klebsiella pneumoniae ATCC BAA-1705 KPC-2: Biapenem + compound (8 μg/mL); for MIC of meropenem in combination with compound, Klebsiella pneumoniae ATCC BAA-1705 KPC-2: Meropenem + compound (8 μg/mL)
[5] = system: Acinetobacter baumannii WX-AB005; assay: MIC test of compounds in combination with antibiotics, Acinetobacter baumannii WX-AB005; settings: for MIC of biapenem in combination with compound, Acinetobacter baumannii WX-AB005: Biapenem + compound (8 μg/mL); for MIC of meropenem in combination with compound, Acinetobacter baumannii WX-AB005: Meropenem + compound (8 μg/mL)
Procedure: as §4, §5, §6, §7, §8, §9

[6] = system: Acinetobacter baumannii WX-AB013; assay: MIC test of compounds in combination with antibiotics, Acinetobacter baumannii WX-AB013; settings: for MIC of biapenem in combination with compound, Acinetobacter baumannii WX-AB013: Biapenem + compound (8 μg/mL); for MIC of meropenem in combination with compound, Acinetobacter baumannii WX-AB013: Meropenem + compound (8 μg/mL)
[7] = system: Acinetobacter baumannii ARLG-1791 OXA-23; assay: MIC test of compounds in combination with antibiotics, Acinetobacter baumannii ARLG-1791; settings: for MIC of biapenem in combination with compound, Acinetobacter baumannii ARLG-1791 OXA-23: Biapenem + compound (8 μg/mL); for MIC of meropenem in combination with compound, Acinetobacter baumannii ARLG-1791 OXA-23: Meropenem + compound (8 μg/mL)
Procedure: as §4, §5, §6, §7, §8, §9

[8] = system: Acinetobacter baumannii ARLG-1809 OXA-23; assay: MIC test of compounds in combination with antibiotics, Acinetobacter baumannii ARLG-1809; settings: for MIC of biapenem in combination with compound, Acinetobacter baumannii ARLG-1809 OXA-23: Biapenem + compound (8 μg/mL); for MIC of meropenem in combination with compound, Acinetobacter baumannii ARLG-1809 OXA-23: Meropenem + compound (8 μg/mL)
Procedure: as §4, §5, §6, §7, §8, §9

[9] = system: Acinetobacter baumannii ARLG-1852 OXA-23; assay: MIC test of compounds in combination with antibiotics, Acinetobacter baumannii ARLG-1852; settings: for MIC of biapenem in combination with compound, Acinetobacter baumannii ARLG-1852 OXA-23: Biapenem + compound (8 μg/mL); for MIC of meropenem in combination with compound, Acinetobacter baumannii ARLG-1852 OXA-23: Meropenem + compound (8 μg/mL)
[10] = system: Acinetobacter baumannii ARLG-1853 OXA-23; assay: MIC test of compounds in combination with antibiotics, Acinetobacter baumannii ARLG-1853; settings: for MIC of biapenem in combination with compound, Acinetobacter baumannii ARLG-1853 OXA-23: Biapenem + compound (8 μg/mL); for MIC of meropenem in combination with compound, Acinetobacter baumannii ARLG-1853 OXA-23: Meropenem + compound (8 μg/mL)
Procedure: as §4, §5, §6, §7, §8, §9

Row | Compound | MIC of biapenem in combination with compound, Escherichia coli ARLG-2829 NDM-5, OXA-1 [1] [µg/mL] | MIC of meropenem in combination with compound, Escherichia coli ARLG-2829 NDM-5, OXA-1 [1] [µg/mL] | MIC of biapenem in combination with compound, Klebsiella pneumoniae ARLG-1196 CTM-1 group, SHV, NDM, TEM [2] [µg/mL] | MIC of meropenem in combination with compound, Klebsiella pneumoniae ARLG-1196 CTM-1 group, SHV, NDM, TEM [2] [µg/mL] | MIC of biapenem in combination with compound, Klebsiella pneumoniae ATCC BAA-2470 NDM-1 [3] [µg/mL] | MIC of meropenem in combination with compound, Klebsiella pneumoniae ATCC BAA-2470 NDM-1 [3] [µg/mL] | MIC of biapenem in combination with compound, Klebsiella pneumoniae ATCC BAA-1705 KPC-2 [4] [µg/mL] | MIC of meropenem in combination with compound, Klebsiella pneumoniae ATCC BAA-1705 KPC-2 [4] [µg/mL] | MIC of biapenem in combination with compound, Acinetobacter baumannii WX-AB005 [5] [µg/mL] | MIC of meropenem in combination with compound, Acinetobacter baumannii WX-AB005 [5] [µg/mL] | MIC of biapenem in combination with compound, Acinetobacter baumannii WX-AB013 [6] [µg/mL] | MIC of meropenem in combination with compound, Acinetobacter baumannii WX-AB013 [6] [µg/mL] | MIC of biapenem in combination with compound, Acinetobacter baumannii ARLG-1791 OXA-23 [7] [µg/mL] | MIC of meropenem in combination with compound, Acinetobacter baumannii ARLG-1791 OXA-23 [7] [µg/mL] | MIC of biapenem in combination with compound, Acinetobacter baumannii ARLG-1809 OXA-23 [8] [µg/mL] | MIC of meropenem in combination with compound, Acinetobacter baumannii ARLG-1809 OXA-23 [8] [µg/mL] | MIC of biapenem in combination with compound, Acinetobacter baumannii ARLG-1852 OXA-23 [9] [µg/mL] | MIC of meropenem in combination with compound, Acinetobacter baumannii ARLG-1852 OXA-23 [9] [µg/mL] | MIC of biapenem in combination with compound, Acinetobacter baumannii ARLG-1853 OXA-23 [10] [µg/mL] | MIC of meropenem in combination with compound, Acinetobacter baumannii ARLG-1853 OXA-23 [10] [µg/mL]
1 | CC(Sc1ccc2c(c1C(=O)O)OB(O)C1CC21)C1CCOCC1 (single isomer, unassigned) [Compound 17-a] | 0.25 | 8 | 0.5 | 8 | 0.25 | 32 | 0.5 | 8 | 4 | 32 | 1 | 8 | 2 | 16 | 4 | 32 | 0.5 | 4 | 1 | 8
2 | CC(Sc1ccc2c(c1C(=O)O)OB(O)C1CC21)C1CCOCC1 (single isomer, unassigned) [Compound 17-b] | 0.25 | 4 | 0.5 | 8 | 0.25 | 64 | 2 | 8 | 4 | 32 | 2 | 16 | 2 | 16 | 4 | 32 | 0.5 | 8 | 1 | 16
